According to patent US9988407B2, “Prodrugs of prostate specific membrane antigen (PSMA) inhibitor” (THE JOHNS HOPKINS UNIVERSITY, priority 2014, dated 2018):
Where “and” joins values, the source holds several entries; their conditions need not be identical. Equal entries are not always repeated.

Legend:
[1] = In vivo pharmacokinetics in mice, peroral, bioanalysis method 1 (total prodrug exposure); settings: mice, oral dosing
Method in brief: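 Mice dosed orally; plasma sampled by cardiac puncture 0–4 h (n=3 per time) or at 30 min only. Total prodrug measured after methanol extraction and n-butanol/3N HCl derivatization by UPLC-MS/MS. Non-compartmental PK: observed Cmax/Tmax, AUC by log-linear trapezoidal rule, t1/2=0.693/ke.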

[2] = Metabolic stability in monkey plasma; type: in vitro ADME; settings: 10 μM, 37° C.
Method: For metabolic stability, plasma (mouse, dog, monkey and human) and liver microsomes (mouse, dog, monkey and human) were used. For stability, prodrugs (10 μM) were spiked in each matrix and incubated in an orbital shaker at 37° C. At predetermined times (0, 30 and 60 min), 100 μL aliquots of the mixture in triplicate were removed and the reaction quenched by addition of three times the volume of ice cold acetonitrile spiked with the internal standard (losartan 5 μM). The samples were vortexed for 30 s and centrifuged 12000 g for 10 min. 50 μL supernatant diluted with 50 μL water was transferred to a 250 μL polypropylene vial sealed with a Teflon cap. Prodrug disappearance was monitored over time using a liquid chromatography and tandem mass spectrometry (LC/MS/MS) method as described below.
For LC/MS/MS, prodrugs were separated with Thermo Scientific Accela UPLC system coupled to Accela open autosampler on an Agilent C18 (100×2.1 mm id) UPLC column. The autosampler was temperature controlled and operating at 10° C. The mobile phase used for the chromatographic separation was composed of acetonitrile/water containing 0.1% formic acid and was run at a flow rate of 0.5 mL/minute for 4.5 minutes using gradient elution. The column effluent was monitored using TSQ Vantage triple-quadrupole mass spectrometric detector, equipped with an electrospray probe set in the positive ionization mode. Samples were introduced into the ionization source through a heated nebulized probe (350° C.).
For quantification of compound remaining, disappearance of prodrugs was measured from ratio of peak areas of analyte to IS. Percentage remaining was calculated in the following manner: […]

[3] = Metabolic stability in human liver microsomes; type: in vitro ADME; settings: 10 μM, 37° C.
Method in brief: (§1)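 Prodrugs at 10 μM were incubated in plasma or liver microsomes at 37° C, with triplicate samples taken at 0, 30 and 60 min and quenched in cold acetonitrile. Loss of prodrug was followed by LC/MS/MS in positive electrospray mode. Percent remaining came from the analyte-to-internal-standard peak-area ratio.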

[4] = Metabolic stability in mouse plasma; type: in vitro ADME; settings: 10 μM, 37° C.
Method in brief: as §1

For `CC(C)OC(=O)OCOC(=O)C(CCC(=O)O)CP(=O)(OCOC(=O)OC(C)C)OCOC(=O)OC(C)C` (stereo not shown) [Compound 10], the “permeability in vivo” value [1] was “highest permeability”, the Percentage remaining ([2]; 0 min) was 100% and the Percentage remaining ([2]; 30 min) was 50%. The Percentage remaining ([2]; 60 min) was 11%, the Percentage remaining ([3]; 0 min) was 100% and the Percentage remaining ([3]; 30 min, listed as TRIS-POC) was 5% and 3%. The Percentage remaining ([3]; 60 min) was 0%, the Percentage remaining ([4]; 0 min) was 100% and the Percentage remaining ([4]; 30 min) was 1%. It also gave a Percentage remaining ([4]; 60 min) of 0%.
